Read-outs that look alike come from different tables or passages of the source.
Legend:
pH Stability Test = assay type: physicochemical; conditions: 100 mg solid dissolved in 10 ml deionized water, pH meter; hydrochloride
Method: First, 100 mg of the X-form crystal solid of Examples 1 to 3, and the amorphous solid of Comparative Examples 1-6 were dissolved in 10 ml of deionized water respectively. Then, pH value of the resulting solutions was measured with a pH meter (Type No: Mettler Toledo MP 250). The measurement results are shown in Table 3, wherein the result of the amorphous and A-form crystals of Comparative Examples 4-9 was quoted from U.S. Pat. No. 7,803,942B2.

[1] = result quoted from U.S. Pat. No. 7,803,942B2; hydrochloride; cited from earlier work

Compound | pH (pH Stability Test) | pH [1]
CN(C(=O)/C=C/c1ccoc1)[C@@H]1CC[C@@]2(O)[C@H]3Cc4ccc(O)c5c4[C@@]2(CCN3CC2CC2)[C@H]1O5.Cl (relative stereo) [Example 1, 17-cyclopropylmethyl-3,14β-dihydroxy-4,5α-epoxy-6β-[N-methyl-trans-3-(3-furyl)acrylamido]morphinan hydrochloride] | 3.5 | 
CN(C(=O)/C=C/c1ccoc1)[C@@H]1CC[C@@]2(O)[C@H]3Cc4ccc(O)c5c4[C@@]2(CCN3CC2CC2)[C@H]1O5.Cl (relative stereo) [Comparative Example 8, 17-cyclopropylmethyl-3,14β-dihydroxy-4,5α-epoxy-6β-[N-methyl-trans-3-(3-furyl)acrylamido]morphinan hydrochloride] |  | 5.4
CN(C(=O)/C=C/c1ccoc1)[C@@H]1CC[C@@]2(O)[C@H]3Cc4ccc(O)c5c4[C@@]2(CCN3CC2CC2)[C@H]1O5.Cl (relative stereo) [Example 3, 17-cyclopropylmethyl-3,14β-dihydroxy-4,5α-epoxy-6β-[N-methyl-trans-3-(3-furyl)acrylamido]morphinan hydrochloride] | 3.6 | 
CN(C(=O)/C=C/c1ccoc1)[C@@H]1CC[C@@]2(O)[C@H]3Cc4ccc(O)c5c4[C@@]2(CCN3CC2CC2)[C@H]1O5.Cl (relative stereo) [Comparative Example 3, 17-cyclopropylmethyl-3,14β-dihydroxy-4,5α-epoxy-6β-[N-methyl-trans-3-(3-furyl)acrylamido]morphinan hydrochloride] | 3.7 | 
CN(C(=O)/C=C/c1ccoc1)[C@@H]1CC[C@@]2(O)[C@H]3Cc4ccc(O)c5c4[C@@]2(CCN3CC2CC2)[C@H]1O5.Cl (relative stereo) [Comparative Example 2, 17-cyclopropylmethyl-3,14β-dihydroxy-4,5α-epoxy-6β-[N-methyl-trans-3-(3-furyl)acrylamido]morphinan hydrochloride] | 2.6 | 
CN(C(=O)/C=C/c1ccoc1)[C@@H]1CC[C@@]2(O)[C@H]3Cc4ccc(O)c5c4[C@@]2(CCN3CC2CC2)[C@H]1O5.Cl (relative stereo) [Comparative Example 5, 17-cyclopropylmethyl-3,14β-dihydroxy-4,5α-epoxy-6β-[N-methyl-trans-3-(3-furyl)acrylamido]morphinan hydrochloride] |  | 4.7
CN(C(=O)/C=C/c1ccoc1)[C@@H]1CC[C@@]2(O)[C@H]3Cc4ccc(O)c5c4[C@@]2(CCN3CC2CC2)[C@H]1O5.Cl (relative stereo) [Example 2, 17-cyclopropylmethyl-3,14β-dihydroxy-4,5α-epoxy-6β-[N-methyl-trans-3-(3-furyl)acrylamido]morphinan hydrochloride] | 3.6 | 
CN(C(=O)/C=C/c1ccoc1)[C@@H]1CC[C@@]2(O)[C@H]3Cc4ccc(O)c5c4[C@@]2(CCN3CC2CC2)[C@H]1O5.Cl (relative stereo) [Comparative Example 6, 17-cyclopropylmethyl-3,14β-dihydroxy-4,5α-epoxy-6β-[N-methyl-trans-3-(3-furyl)acrylamido]morphinan hydrochloride] |  | 3.5
CN(C(=O)/C=C/c1ccoc1)[C@@H]1CC[C@@]2(O)[C@H]3Cc4ccc(O)c5c4[C@@]2(CCN3CC2CC2)[C@H]1O5.Cl (relative stereo) [Comparative Example 4, 17-cyclopropylmethyl-3,14β-dihydroxy-4,5α-epoxy-6β-[N-methyl-trans-3-(3-furyl)acrylamido]morphinan hydrochloride] |  | 3.7
CN(C(=O)/C=C/c1ccoc1)[C@@H]1CC[C@@]2(O)[C@H]3Cc4ccc(O)c5c4[C@@]2(CCN3CC2CC2)[C@H]1O5.Cl (relative stereo) [Comparative Example 7, 17-cyclopropylmethyl-3,14β-dihydroxy-4,5α-epoxy-6β-[N-methyl-trans-3-(3-furyl)acrylamido]morphinan hydrochloride] |  | 5.8
CN(C(=O)/C=C/c1ccoc1)[C@@H]1CC[C@@]2(O)[C@H]3Cc4ccc(O)c5c4[C@@]2(CCN3CC2CC2)[C@H]1O5.Cl (relative stereo) [Comparative Example 9, 17-cyclopropylmethyl-3,14β-dihydroxy-4,5α-epoxy-6β-[N-methyl-trans-3-(3-furyl)acrylamido]morphinan hydrochloride] |  | 5.6
CN(C(=O)/C=C/c1ccoc1)[C@@H]1CC[C@@]2(O)[C@H]3Cc4ccc(O)c5c4[C@@]2(CCN3CC2CC2)[C@H]1O5.Cl (relative stereo) [Comparative Example 1, 17-cyclopropylmethyl-3,14β-dihydroxy-4,5α-epoxy-6β-[N-methyl-trans-3-(3-furyl)acrylamido]morphinan hydrochloride] | 4.4 | 
